Reference: patent publication US9607202B2, “Methods of generating trophectoderm and neurectoderm from human embryonic stem cells” (UNIVERSITY OF PITTSBURGH—OF THE COMMONWEALTH SYSTEM OF …, priority 2009, dated 2017)

How the values were obtained:
Format in all cases: cell-based, human
hESCs [1] = assay: HDAC inhibition with TSA on BMP4-induced hESC differentiation in MIM
From the text: Though not TE-selective, BMP4 supplementation to MIM was the most robust protocol for hESC differentiation to multiple lineages. To test whether or not TSA caused lineage specific inhibition, this protocol was used to assess HDAC inhibition on hESC differentiation to TE, ME or ExE. […] Thus HDAC inhibition delayed BMP4-induced hESC differentiation in the short-term, without altering lineage selection
96-well Microplates were scanned using the 5 or 10× objective on the ArrayScan V Automated image analysis was performed using the Compartmental Analysis BioApplication using Hoechst for identification of nuclei and various transcription factor antibodies (Table 2). Nuclear-specific fluorescence intensity was determined from approximately 300 single cells per well from 3-6 independent wells to produce a well-average nuclear intensity for each measurement Mean and standard deviation were calculated from multiple wells. Fold change of the mean intensities were normalized against matched unstimulated external controls, usually the pluripotent condition, to divide out differences due to efficiency of antibody-antigen binding and chromophore quantum yield. […] Select conditions are additionally compared in bar graph format to show standard deviations and T-tests.
Colony morphology was quantified by statistical multiresolution analysis of image texture (Mangoubi et al., 2007; Sammak et al., 2008). Image texture is a mathematical measure of the size and sharpness of objects in the image, which is illustrated in one dimension by an intensity line profile (FIG. 10). […] Therefore, we employ texture analysis as an integrated measure of colony morphology. Texture was measured using wavelet analysis (Do and Vetterli, 2002), a generalization of Fourier analysis, to decompose colony texture in phase contrast images (4× objective, Nikon TMS microscope), producing a joint probability density function for the wavelet coefficients from various scales. Different culture conditions can be distinguished as belonging to distinct classes. Each class is thus represented by a probability density function, and quantitative comparative features for classifying and statistically distinguishing colony textures are extracted from the density functions. One such feature is the Kullback-Leibler (KL) distance (Do and Vetterli, 2002). […] Specifically the KL distance between a pair of colonies from the same class is shorter than a pair from different classes.

hESCs [2] = assay: TSA-mediated inhibition of noggin induction of neurectoderm differentiation
Description: The hESCs were grown and passaged via standard collagenase methods and passaged into two ibidi plastic 8-well slides. All hESCs were plated onto feederless plates with Stempro Media for 24 hours. hESCs were 50% confluent at time of passage and split 1:5.
All plates were fed with Neural Differentiation Media (1:1 mix of D-MEM/F12 supplemented with 1×N2 and Neurobasal medium supplemented with B27 (all from Gibco/Invitrogen); supplemented with 100 ng/ml mouse recombinant noggin (R & D systems), 50 U/ml penicillin/50 μg/ml streptomycin (Invitrogen) and 2 mML-glutamine (Invitrogen)) starting at day 0 (100 ng/mL noggin in N2B/27 with media changed daily). Six wells in each of two plates was treated with TSA (0-25 nM daily beginning 24 hours s/p plating hESC
Colonies were stained with HDACI and Nestin. These proteins co-stained in a peri-nuclear filamentous pattern consistent with previous Nestin distribution. Pax6 expression was negative.

[3] = tested on: pluripotent hESC, line H7; assay: TSA or HDAC siRNA on pluripotent hESC in mTeSR: developmental and epigenetic markers (Arrayscan); settings: TSA 0.5, 1.0 and 2.0 nM for 2 days
Description: In all panels of FIG. 11, pluripotent hESC, line H7, were cultured in mTeSR media were plated in 96 well plates, fixed and immunostained for developmental and epigenetic markers, and the intensity was measured using the Thermo Fisher Arrayscan. 300 cells per well, 3 wells per condition were measured and standard deviations (error bars) and T Tests were evaluated. […] Anti-HDAC3 antibodies confirms that siRNA directed against HDAC3, but not HDAC1, HDAC2, or control knocked down the concentration of HDAC3 (P<0.05, data not background subtracted). […] This protein changes colony texture by producing smooth, homogeneous colonies. […] This marker is selective for high cells with high levels of pluripotency.

hESC = assay: TSA toxicity in hESC
[4] = 2 nM TSA in MIM plus BMP4, 48 hours, relative to BMP4 alone

For CC(/C=C/C(=O)NO)=C\[C@@H](C)C(=O)c1ccc(N(C)C)cc1 [TSA, trichostatin A], the CDX2 expression (hESCs [1]; [4]) was “decrease”, the GATA6 expression (hESCs [1]; [4]) was “decrease” and the OCT4 level (hESCs [1]; [4]) was “significant OCT4 level increase”. For the same molecule, the brachyury expression (hESCs [1]; [4]) was “decrease”, the “expression of HDAC3” value (hESCs [1]; TSA added to MIM with BMP4) was “significantly reduced” and the “methylation of histone H3K9” value (hESCs [1]; TSA added to MIM with BMP4) was “significantly reduced”. For the same molecule, the “BMP4-induced epithelial transformation (colony morphology by texture analysis)” value (hESCs [1]; TSA in MIM plus BMP4, 48 hours) was “significantly delayed”, the “molar sensitivity in hESC” value (hESCs [2]) was 1 nM and the “HDAC (HDAC1 expression)” value (hESCs [2]; 1.0 nM TSA) was “reduces”. For the same molecule, the expression of nestin (hESCs [2]; 1.0 nM TSA) was “reduces”, the “methylation of histone H3 on lysine 9” value (hESCs [2]; 1.0 nM TSA) was “reduces” and the “effect on cell-cell adhesion and cell motility” value (hESCs [2]; 5 nM TSA, noggin differentiation media, 48 hrs) was “reduced cell-cell adhesion and increased cell motility”. For the same molecule, the “longer-term formation of neurectoderm” value (hESCs [2]; TSA treatment for 4 or more days) was “did not inhibit longer-term formation of neurectoderm”, the neurectoderm formation (hESCs [2]; TSA treatment for 2 days at the initiation of differentiation) was “inhibited neurectoderm formation” and the “DNA methylation on 5'cytosine” value [3] was “decreased”. The GTCM2 [3] was “increased”, the H3K9me3 [3] was “decreased” and the H3K27me3 [3] was “decreased”. For the same molecule, the HDAC3 [3] was “significantly reduced”, the Nanog [3] was “increased” and the “histone acetylation on H3K9” value [3] was “decreased acetylation”. For the same molecule, the “increase of colony size” value [3] was 2 fold, the “peripheral F-actin” value [3] was “increased” and the Oct4 ([3]; dose dependent) was “increased”. For the same molecule, the “highest concentration without toxic effects” value (hESC) was 1 nM.
